Measurements reported in US11814367B2, “Inhibitors of glycogen synthase 1 (GYS1) and methods of use thereof” (Maze Therapeutics, Inc., priority 2021, dated 2023).

How the values were obtained:
[1] = target: hGYS1 enzyme (recombinant hGYS1/GN1 protein) (Homo sapiens (Human), UniProt P13807); assay: GYS1 coupled enzyme assay (PK/LDH); type: biochemical; conditions: hGYS1/GN1 50 nM, UDP-Glucose 0.8 mM, G6P 1 mM; geometric mean of at least 2 runs
[2] = target: hGYS2 enzyme (recombinant hGYS2/GN1 protein) (Homo sapiens (Human), UniProt P54840); assay: GYS2 coupled enzyme assay (PK/LDH); type: biochemical; conditions: geometric mean of at least 2 assay runs on separate days, read-out: Avg_IC50
Summary of the method: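 hGYS2/GN1 200 nM; UDP-Glc 2 mM; glycogen 0.2%; G6P 2 mM; PEP 2 mM, NADH 0.6 mM, PK/LDH 20 U/mL. 50 mM Tris pH 7.5, MgCl2, KCl, BSA, TCEP, 2.5% DMSO. Kinetic A340, 10 min. IC50 = geomean of ≥2 runs.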

[3] = system: hGYS1 enzyme / glycogen synthesis in HeLa cells; assay: GYS1 cell based assay (glycogen synthesis, Glucose-glo); design: species or system human; conditions: 24 h incubation, 20 mM glucose, geometric mean of at least 2 runs
Summary of the method: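 HeLa cells starved 24 h in medium containing only 1× Glutamax were plated onto compound in medium with 20 mM glucose (1% DMSO final) for 24 h, 37 °C, 5% CO2. Acid lysates were Tris-quenched, glucoamylase-digested (pH 5.3, 1 h, 37 °C) and read by Glucose-glo luminescence. IC50 came from Hill fits, as geometric mean of ≥2 runs.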

Chain of hGYS1 enzyme (recombinant hGYS1/GN1 protein) (P13807 whole entry): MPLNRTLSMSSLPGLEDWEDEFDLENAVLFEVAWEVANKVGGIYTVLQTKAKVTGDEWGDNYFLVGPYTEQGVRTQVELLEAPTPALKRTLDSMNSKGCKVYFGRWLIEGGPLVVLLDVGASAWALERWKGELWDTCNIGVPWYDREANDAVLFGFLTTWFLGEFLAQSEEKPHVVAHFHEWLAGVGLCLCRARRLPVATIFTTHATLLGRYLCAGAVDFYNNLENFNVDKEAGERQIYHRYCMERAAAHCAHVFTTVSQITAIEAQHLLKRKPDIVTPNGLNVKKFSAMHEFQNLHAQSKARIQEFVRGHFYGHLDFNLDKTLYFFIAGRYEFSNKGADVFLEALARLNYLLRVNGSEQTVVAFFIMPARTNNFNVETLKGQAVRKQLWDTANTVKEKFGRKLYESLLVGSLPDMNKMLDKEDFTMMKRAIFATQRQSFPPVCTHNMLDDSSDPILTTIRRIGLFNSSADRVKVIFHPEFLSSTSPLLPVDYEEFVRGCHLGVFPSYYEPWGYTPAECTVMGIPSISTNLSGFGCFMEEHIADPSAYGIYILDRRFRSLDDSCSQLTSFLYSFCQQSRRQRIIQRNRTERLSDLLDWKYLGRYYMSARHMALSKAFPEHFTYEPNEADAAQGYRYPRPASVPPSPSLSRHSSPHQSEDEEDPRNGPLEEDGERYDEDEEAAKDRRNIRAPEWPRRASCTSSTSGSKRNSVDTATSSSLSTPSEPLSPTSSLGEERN
Chain of hGYS1 enzyme (recombinant hGYS1/GN1 protein) (P46976 whole entry partner): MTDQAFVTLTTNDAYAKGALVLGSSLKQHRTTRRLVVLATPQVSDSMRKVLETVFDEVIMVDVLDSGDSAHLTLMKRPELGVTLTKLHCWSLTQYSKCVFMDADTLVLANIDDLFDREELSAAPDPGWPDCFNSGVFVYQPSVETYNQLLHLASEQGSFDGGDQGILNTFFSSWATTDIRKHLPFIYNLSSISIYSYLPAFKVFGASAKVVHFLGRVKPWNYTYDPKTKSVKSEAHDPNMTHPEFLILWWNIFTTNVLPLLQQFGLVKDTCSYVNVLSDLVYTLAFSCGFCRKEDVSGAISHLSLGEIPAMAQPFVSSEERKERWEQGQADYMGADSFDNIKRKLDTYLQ
Chain of hGYS2 enzyme (recombinant hGYS2/GN1 protein) (P54840 whole entry): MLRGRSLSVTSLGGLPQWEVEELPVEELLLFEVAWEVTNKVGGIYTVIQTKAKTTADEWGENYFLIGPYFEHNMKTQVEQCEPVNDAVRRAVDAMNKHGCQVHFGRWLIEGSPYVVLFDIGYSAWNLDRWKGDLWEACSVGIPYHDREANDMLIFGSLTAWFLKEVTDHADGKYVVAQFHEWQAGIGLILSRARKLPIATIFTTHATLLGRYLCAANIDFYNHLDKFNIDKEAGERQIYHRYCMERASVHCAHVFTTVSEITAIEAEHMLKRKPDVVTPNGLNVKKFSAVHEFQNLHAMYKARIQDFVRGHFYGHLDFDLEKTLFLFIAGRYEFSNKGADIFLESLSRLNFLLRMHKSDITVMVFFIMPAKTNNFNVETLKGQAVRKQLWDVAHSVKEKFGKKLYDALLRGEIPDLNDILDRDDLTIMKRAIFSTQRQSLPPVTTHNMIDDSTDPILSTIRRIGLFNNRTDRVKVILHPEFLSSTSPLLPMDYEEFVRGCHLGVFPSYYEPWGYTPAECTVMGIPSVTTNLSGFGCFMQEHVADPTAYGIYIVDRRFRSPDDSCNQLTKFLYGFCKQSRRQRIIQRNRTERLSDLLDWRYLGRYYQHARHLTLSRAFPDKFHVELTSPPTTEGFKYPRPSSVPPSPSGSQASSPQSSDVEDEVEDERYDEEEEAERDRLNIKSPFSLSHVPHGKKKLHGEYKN
Chain of hGYS2 enzyme (recombinant hGYS2/GN1 protein) (P46976 whole entry partner): as the sequence (P46976 whole entry partner) above

| Structure (SMILES) | IC50 [1] [nM] | IC50 [2] [nM] | IC50 ([3]; Homo sapiens, HeLa, 24 h) [nM] | IC50 [3] [nM] |
| --- | --- | --- | --- | --- |
| Cc1nccc(NCC(=O)N2C[C@H](F)C[C@H]2C(=O)N[C@@H](c2ccccc2)c2ccc(C(C)C)c(F)n2)n1 [Compound 404, (2S,4R)-4-fluoro-N-[(S)-[6-fluoro-5-(propan-2-yl)pyridin-2-yl](phenyl)methyl]-1-{2-[(2-methylpyrimidin-4-yl)amino]acetyl} pyrrolidine-2-carboxamide] | 6 | > 100000 | 70 |  |
| CC(C)c1ccc([C@@H](NC(=O)[C@@H]2C[C@@H](F)CN2C(=O)Cn2nnc(C(F)F)n2)c2ccccc2)nc1 [Compound 256, (2S,4R)-1-{2-[5-(difluoromethyl)-2H-1,2,3,4-tetrazol-2-yl]acetyl}-4-fluoro-N-[(S)-phenyl[5-(propan-2-yl)pyridin-2-yl]methyl]pyrrolidine-2-carboxamide] | 39 | > 100000 | 990 |  |
| Cn1nc(CC(=O)N2C[C@H](F)C[C@H]2C(=O)N[C@@H](c2ccccc2)c2ccc(C3(C)CC3)c(F)c2)c2ccccc21 [Compound 564, (2S,4R)-4-fluoro-N-[(S)-[3-fluoro-4-(1-methylcyclopropyl)phenyl](phenyl)methyl]-1-[2-(1-methyl-1H-indazol-3-yl)acetyl]pyrrolidine-2-carboxamide] | 56 | > 100000 | 790 |  |
| Cc1cnc(CC(=O)N2C[C@H](F)C[C@H]2C(=O)N[C@@H](c2ccccc2)c2ccc(C3CC(F)(F)C3)c(F)n2)o1 [Compound 509, (2S,4R)-N-[(S)-[5-(3,3-difluorocyclobutyl)-6-fluoropyridin-2-yl](phenyl)methyl]-4-fluoro-1-[2-(5-methyl-1,3-oxazol-2-yl)acetyl]pyrrolidine-2-carboxamide] | 8 | > 100000 | 180 |  |
| CC(C)c1ccc([C@@H](NC(=O)[C@@H]2C[C@@H](F)CN2C(=O)Cc2cnn[nH]2)c2ccccc2)cc1F [Compound 326, (2S,4R)-4-fluoro-N-[(S)-[3-fluoro-4-(propan-2-yl)phenyl](phenyl)methyl]-1-[2-(1H-1,2,3-triazol-5-yl)acetyl]pyrrolidine-2-carboxamide] | 20 | > 100000 | 340 |  |
| CCn1c(=O)c(C)cn(CC(=O)N2C[C@H](F)C[C@H]2C(=O)N[C@H](c2ccccc2)c2ccc(C3CC(F)(F)C3)c(F)n2)c1=O [Compound 518, (2S,4R)-N-[(R)-[5-(3,3-difluorocyclobutyl)-6-fluoropyridin-2-yl](phenyl)methyl]-1-[2-(3-ethyl-5-methyl-2,4-dioxo-1,2,3,4-tetrahydropyrimidin-1-yl)acetyl]-4-fluoropyrrolidine-2-carboxamide] | 1500 | > 100000 | 10700 |  |
| CC(C)c1ccc([C@@H](NC(=O)[C@@H]2C[C@@H](F)CN2C(=O)C(O)c2cnn[nH]2)c2ccccc2)cc1F (single isomer, unassigned) [Compound 773, (2S,4R)-4-fluoro-N -[(S)-[3-fluoro-4-(propan-2-yl)phenyl](phenyl)methyl]-1-[(2R) or (2S)-2-hydroxy-2-(1H-1,2,3-triazol-5-yl)acetyl]pyrrolidine-2-carboxamide] | 124 | > 100000 |  | 1200 |
| Cc1nccc(NCC(=O)N2C[C@H](F)C[C@H]2C(=O)N[C@@H](c2ccccc2)c2ccc(C3CC3)c(F)n2)n1 [Compound 308, (2S,4R)-N-[(S)-(5-cyclopropyl-6-fluoropyridin-2-yl)(phenyl)methyl]-4-fluoro-1-{2-[(2-methylpyrimidin-4-yl)amino]acetyl}pyrrolidine-2-carboxamide] | 11 | > 100000 | 330 |  |
| CC(C)c1ccc(C(NC(=O)[C@@H]2C[C@@H](F)CN2C(=O)Cc2cnn[nH]2)c2ccc3cn[nH]c3c2)nc1F (single isomer, unassigned) [Compound 632, (2S,4R)-4-fluoro-N-[(S) or (R)-[6-fluoro-5-(propan-2-yl)pyridin-2-yl](1H-indazol-6-yl)methyl]-1-[2-(1H-1,2,3-triazol-5-yl)acetyl]pyrrolidine-2-carboxamide] | 13 | > 100000 |  | 660 |
